Reference: patent US12252524B2, “GIP/GLP1 co-agonist compounds” (Eli Lilly and Company, priority 2018, dated 2025)
Numbered stars: 1 amine (or outer) side, 2 acyl side, 3 side chain; on linkers, the order of the positions; unused ones are H or OH. Square brackets hold non-standard residues; d marks the D form. Side chains are listed from the residue outwards. Peptide text beside a SMILES is read from it. * marks the point of attachment. C20 diacid = O=C(O)CCCCCCCCCCCCCCCCCCC(=O)*; C18 diacid = O=C(O)CCCCCCCCCCCCCCCCC(=O)*; αMePhe(2-F) = C[C@](N)(Cc1ccccc1F)C(=O)O; γGlu = O=C(O)[C@H](CCC(=O)[*:2])N[*:1]; αMeF = C[C@](N)(Cc1ccccc1)C(=O)O; αMeL = CC(C)C[C@](C)(N)C(=O)O; AEEA = NCCOCCOCC(=O)O; Aib = CC(C)(N)C(=O)O

Assays:
[1] = biological target: T1, gastric inhibitory peptide receptor (GIPR) (Homo sapiens, UniProt P48546); assay: cAMP pharmacological functional assay in presence of casein, hGIPR; assay type: cell-based; conditions: HEK293 cells expressing hGIPR, 0.1% Casein, geometric mean; read-out: hGIPR cAMP Rel EC50 nM (SEM, n)
T1 sequence (P48546 22-466): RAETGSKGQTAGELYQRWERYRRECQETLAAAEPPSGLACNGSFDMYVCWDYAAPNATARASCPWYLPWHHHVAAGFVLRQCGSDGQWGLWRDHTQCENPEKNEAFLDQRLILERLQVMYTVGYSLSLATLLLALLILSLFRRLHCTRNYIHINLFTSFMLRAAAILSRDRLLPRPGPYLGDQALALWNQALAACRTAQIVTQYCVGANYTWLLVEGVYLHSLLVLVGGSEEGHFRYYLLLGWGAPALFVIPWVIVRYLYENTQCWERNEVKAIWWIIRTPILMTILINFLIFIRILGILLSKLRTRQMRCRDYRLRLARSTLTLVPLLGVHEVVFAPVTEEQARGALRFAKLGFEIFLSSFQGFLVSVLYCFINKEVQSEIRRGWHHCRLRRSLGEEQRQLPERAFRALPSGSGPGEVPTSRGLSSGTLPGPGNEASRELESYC

human Gcg receptor = biological target: T2, human Gcg receptor (Homo sapiens, UniProt P47871); assay: [125I]-Glucagon binding (SPA), human Gcg receptor; conditions: read-out: hGLcgR Ki, nM (SEM, n)
T2 construct: expressed in transfected cells; crude membranes
T2 sequence (P47871 26-477): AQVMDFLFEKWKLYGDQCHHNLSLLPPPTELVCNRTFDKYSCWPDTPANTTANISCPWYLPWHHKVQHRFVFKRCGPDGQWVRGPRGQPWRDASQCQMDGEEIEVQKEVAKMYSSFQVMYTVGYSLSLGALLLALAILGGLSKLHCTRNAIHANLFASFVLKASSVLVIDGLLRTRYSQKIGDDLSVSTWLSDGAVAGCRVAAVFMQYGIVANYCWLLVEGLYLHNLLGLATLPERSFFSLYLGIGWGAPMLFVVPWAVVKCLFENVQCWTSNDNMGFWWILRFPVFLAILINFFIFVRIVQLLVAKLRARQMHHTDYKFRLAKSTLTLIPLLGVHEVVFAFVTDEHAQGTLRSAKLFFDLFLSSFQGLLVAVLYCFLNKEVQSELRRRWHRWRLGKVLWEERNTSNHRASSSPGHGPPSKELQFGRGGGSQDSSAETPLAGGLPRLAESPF
How it was run: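 Crude membranes from cells expressing the receptor, prepared by hypotonic lysis in 50 mM Tris HCl pH 7.5 with protease inhibitors, homogenization and differential centrifugation, were used in a WGA-bead SPA. Binding buffer: 25 mM HEPES pH 7.4, 2.5 mM CaCl2, 1 mM MgCl2, bacitracin, Tween-20.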

[2] = biological target: human GLP-1 receptor (GLP-1R) (Homo sapiens, UniProt P43220); assay: cAMP pharmacological functional assay in presence of casein, hGLP-1R; assay type: cell-based; conditions: HEK293 cells expressing hGLP-1R, 0.1% Casein, geometric mean; read-out: hGLP1R cAMP Rel EC50 nM (SEM, n)
human GLP-1 receptor (GLP-1R), sequence (P43220 24-463): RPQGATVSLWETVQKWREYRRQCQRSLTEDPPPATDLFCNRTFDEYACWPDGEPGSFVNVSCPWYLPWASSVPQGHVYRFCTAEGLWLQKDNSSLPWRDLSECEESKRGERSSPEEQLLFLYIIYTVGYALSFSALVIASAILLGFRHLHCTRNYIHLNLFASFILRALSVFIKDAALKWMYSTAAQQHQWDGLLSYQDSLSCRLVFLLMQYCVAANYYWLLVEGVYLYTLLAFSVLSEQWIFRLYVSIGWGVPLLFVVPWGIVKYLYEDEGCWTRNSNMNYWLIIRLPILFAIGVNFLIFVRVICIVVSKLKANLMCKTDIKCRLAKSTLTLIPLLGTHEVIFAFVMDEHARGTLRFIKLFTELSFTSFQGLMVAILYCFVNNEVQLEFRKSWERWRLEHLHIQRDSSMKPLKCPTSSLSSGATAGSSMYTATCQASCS

human GIP receptor = biological target: T3, human GIP receptor (Homo sapiens, UniProt P48546); assay: [125I]-GIP binding (SPA), human GIP receptor; conditions: read-out: hGIPR Ki, nM (SEM, n)
T3 construct: expressed in transfected cells; crude membranes
T3 sequence (P48546 22-466): T1 sequence (P48546 22-466)

human GLP-1R = human GLP-1R (Homo sapiens, UniProt P43220); assay: [125I]-GLP-1 binding (SPA), human GLP-1 receptor; set-up: expressed in transfected cells; crude membranes; conditions: read-out: hGLP1R Ki, (nM) (SEM, n)
human GLP-1R, sequence (P43220 24-463): as above
How it was run: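 Ki values are geometric means with SEM over independent replicates on different days, derived from IC50s fitted by four-parameter nonlinear regression. The assay used crude cell membranes in HEPES buffer, pH 7.4, containing CaCl2, MgCl2, bacitracin and TWEEN-20.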

| Structure (SMILES) | EC50 [1] [nM] | Ki (human Gcg receptor) [nM] | EC50 [2] [nM] | Ki (human GIP receptor) [nM] | Ki (human GLP-1R) [nM] |
| --- | --- | --- | --- | --- | --- |
| CC[C@H](C)[C@H](NC(=O)[C@H](CC(C)C)NC(=O)[C@H](Cc1ccc(O)cc1)NC(=O)[C@H](CCC(=O)O)NC(=O)[C@@H](NC(=O)[C@H](Cc1ccccc1)NC(=O)[C@H](C)NC(=O)C(C)(C)NC(=O)[C@H](CCC(N)=O)NC(=O)[C@H](C)NC(=O)[C@H](CCCCNC(=O)COCCOCCNC(=O)COCCOCCNC(=O)CC[C@H](NC(=O)CCCCCCCCCCCCCCCCCCC(=O)O)C(=O)O)NC(=O)[C@H](CCC(=O)O)NC(=O)[C@H](CC(=O)O)NC(=O)[C@H](CC(C)C)NC(=O)[C@](C)(CC(C)C)NC(=O)[C@@H](NC(=O)[C@H](CO)NC(=O)[C@H](Cc1ccc(O)cc1)NC(=O)[C@H](CC(=O)O)NC(=O)[C@H](CO)NC(=O)[C@@H](NC(=O)[C@H](Cc1ccccc1)NC(=O)[C@@H](NC(=O)CNC(=O)[C@H](CCC(=O)O)NC(=O)C(C)(C)NC(=O)[C@@H](N)Cc1ccc(O)cc1)[C@@H](C)O)[C@@H](C)O)[C@@H](C)CC)[C@@H](C)CC)C(=O)N[C@@H](CCC(=O)O)C(=O)NCC(=O)NCC(=O)N1CCC[C@H]1C(=O)N[C@@H](CO)C(=O)N[C@@H](CO)C(=O)NCC(=O)N[C@@H](C)C(=O)N1CCC[C@H]1C(=O)N1CCC[C@H]1C(=O)N1CCC[C@H]1C(=O)N[C@@H](CO)C(N)=O [Example 59] (H-Y[Aib]EGTFTSDYSI[αMeL]LDEK([AEEA-AEEA-γGlu-C20 diacid])AQ[Aib]AFIEYLIEGGPSSGAPPPS-NH2) | 0.0922 | 292 | 0.084 | 0.136 | 8.2 |
| CC[C@H](C)[C@H](NC(=O)[C@H](CC(C)C)NC(=O)[C@H](Cc1ccc(O)cc1)NC(=O)[C@H](CCC(=O)O)NC(=O)[C@@H](NC(=O)[C@H](Cc1ccccc1)NC(=O)[C@H](C)NC(=O)C(C)(C)NC(=O)[C@H](CCC(N)=O)NC(=O)[C@H](C)NC(=O)[C@H](CCCCNC(=O)COCCOCCNC(=O)COCCOCCNC(=O)CC[C@H](NC(=O)CCCCCCCCCCCCCCCCCCC(=O)O)C(=O)O)NC(=O)[C@H](CCCCN)NC(=O)[C@H](CC(=O)O)NC(=O)[C@H](CC(C)C)NC(=O)[C@](C)(CC(C)C)NC(=O)[C@@H](NC(=O)[C@H](CO)NC(=O)[C@H](Cc1ccc(O)cc1)NC(=O)[C@H](CC(=O)O)NC(=O)[C@H](CO)NC(=O)[C@@H](NC(=O)[C@](C)(Cc1ccccc1)NC(=O)[C@@H](NC(=O)CNC(=O)[C@H](CCC(=O)O)NC(=O)C(C)(C)NC(=O)[C@@H](N)Cc1ccc(O)cc1)[C@@H](C)O)[C@@H](C)O)[C@@H](C)CC)[C@@H](C)CC)C(=O)N[C@@H](CCC(=O)O)C(=O)NCC(=O)NCC(N)=O [Example 99] (H-Y[Aib]EGT[αMeF]TSDYSI[αMeL]LDKK([AEEA-AEEA-γGlu-C20 diacid])AQ[Aib]AFIEYLIEGG-NH2) | 0.0643 | 23.6 | 0.0986 | 0.027 | 1.15 |
| CC[C@H](C)[C@H](NC(=O)[C@H](CC(C)C)NC(=O)[C@H](Cc1ccc(O)cc1)NC(=O)[C@@H](CCC(=O)O)NC(=O)[C@@H](NC(=O)[C@H](Cc1ccccc1)NC(=O)[C@H](CCC(=O)O)NC(=O)C(C)(C)NC(=O)[C@H](CCC(N)=O)NC(=O)[C@H](C)NC(=O)[C@H](CCCCNC(=O)COCCOCCNC(=O)COCCOCCNC(=O)CCCCCCCCCCCCCCCCC(=O)O)NC(=O)[C@H](CCC(=O)O)NC(=O)[C@H](CC(=O)O)NC(=O)[C@H](CC(C)C)NC(=O)[C@](C)(CC(C)C)NC(=O)[C@@H](NC(=O)[C@H](CO)NC(=O)[C@H](Cc1ccc(O)cc1)NC(=O)[C@H](CC(=O)O)NC(=O)[C@H](CO)NC(=O)[C@@H](NC(=O)[C@](C)(Cc1ccccc1F)NC(=O)[C@@H](NC(=O)CNC(=O)[C@H](CCC(=O)O)NC(=O)C(C)(C)NC(=O)[C@@H](N)Cc1ccc(O)cc1)[C@@H](C)O)[C@@H](C)O)[C@@H](C)CC)[C@@H](C)CC)C(=O)N[C@@H](CCC(=O)O)C(=O)NCC(=O)NCC(=O)N1CCC[C@H]1C(=O)N[C@@H](CO)C(=O)N[C@@H](CO)C(=O)NCC(=O)N[C@@H](C)C(=O)N1CCC[C@H]1C(=O)N1CCC[C@H]1C(=O)N1CCC[C@H]1C(=O)N[C@@H](CO)C(N)=O [Example 214] (H-Y[Aib]EGT[αMePhe(2-F)]TSDYSI[αMeL]LDEK([AEEA-AEEA-C18 diacid])AQ[Aib]EFI[dE]YLIEGGPSSGAPPPS-NH2) | 0.0251 | 126 | 0.0221 | 0.0304 | 1.99 |
| CC[C@H](C)[C@H](NC(=O)[C@H](CCCCN)NC(=O)[C@H](CC(=O)O)NC(=O)[C@H](CC(C)C)NC(=O)[C@H](CC(C)C)NC(=O)[C@@H](NC(=O)[C@H](CO)NC(=O)[C@H](Cc1ccc(O)cc1)NC(=O)[C@H](CC(=O)O)NC(=O)[C@H](CO)NC(=O)[C@@H](NC(=O)[C@H](Cc1ccccc1)NC(=O)[C@@H](NC(=O)CNC(=O)[C@H](CCC(=O)O)NC(=O)C(C)(C)NC(=O)[C@@H](N)Cc1ccc(O)cc1)[C@@H](C)O)[C@@H](C)O)[C@@H](C)CC)C(=O)N[C@@H](C)C(=O)N[C@@H](CCC(N)=O)C(=O)NC(C)(C)C(=O)N[C@@H](C)C(=O)N[C@@H](Cc1ccccc1)C(=O)N[C@H](C(=O)N[C@@H](CCC(=O)O)C(=O)N[C@@H](Cc1ccc(O)cc1)C(=O)N[C@@H](CC(C)C)C(=O)N[C@H](C(=O)N[C@@H](CCC(=O)O)C(=O)NCC(=O)NCC(=O)N1CCC[C@H]1C(=O)N[C@@H](CO)C(=O)N[C@@H](CO)C(=O)N[C@@H](CCCCNC(=O)COCCOCCNC(=O)COCCOCCNC(=O)CC[C@H](NC(=O)CCCCCCCCCCCCCCCCCCC(=O)O)C(=O)O)C(=O)N[C@@H](C)C(=O)N1CCC[C@H]1C(=O)N1CCC[C@H]1C(=O)N1CCC[C@H]1C(=O)N[C@@H](CO)C(N)=O)[C@@H](C)CC)[C@@H](C)CC [Example 43] (H-Y[Aib]EGTFTSDYSILLDKIAQ[Aib]AFIEYLIEGGPSSK([AEEA-AEEA-γGlu-C20 diacid])APPPS-NH2; N-terminus assumed) | 0.112 | 134 | 0.862 | 0.101 | 11.8 |
| CC[C@H](C)[C@H](NC(=O)[C@H](CC(C)C)NC(=O)[C@H](Cc1ccc(O)cc1)NC(=O)[C@@H](CCC(=O)O)NC(=O)[C@@H](NC(=O)[C@H](Cc1ccccc1)NC(=O)[C@H](CCC(=O)O)NC(=O)C(C)(C)NC(=O)[C@H](CCC(N)=O)NC(=O)[C@H](C)NC(=O)[C@H](CCCCNC(=O)COCCOCCNC(=O)COCCOCCNC(=O)CC[C@H](NC(=O)CCCCCCCCCCCCCCCCCCC(=O)O)C(=O)O)NC(=O)[C@H](CCCCN)NC(=O)[C@H](CC(=O)O)NC(=O)[C@H](CC(C)C)NC(=O)[C@](C)(CC(C)C)NC(=O)[C@@H](NC(=O)[C@H](CO)NC(=O)[C@H](Cc1ccc(O)cc1)NC(=O)[C@H](CC(=O)O)NC(=O)[C@H](CO)NC(=O)[C@@H](NC(=O)[C@](C)(Cc1ccccc1F)NC(=O)[C@@H](NC(=O)CNC(=O)[C@H](CCC(=O)O)NC(=O)C(C)(C)NC(=O)[C@@H](N)Cc1ccc(O)cc1)[C@@H](C)O)[C@@H](C)O)[C@@H](C)CC)[C@@H](C)CC)C(=O)N[C@@H](CCC(=O)O)C(=O)NCC(=O)NCC(=O)N1CCC[C@H]1C(=O)N[C@@H](CO)C(=O)N[C@@H](CO)C(=O)NCC(=O)N[C@@H](C)C(=O)N1CCC[C@H]1C(=O)N1CCC[C@H]1C(=O)N1CCC[C@H]1C(=O)N[C@@H](CO)C(N)=O [Example 212] (H-Y[Aib]EGT[αMePhe(2-F)]TSDYSI[αMeL]LDKK([AEEA-AEEA-γGlu-C20 diacid])AQ[Aib]EFI[dE]YLIEGGPSSGAPPPS-NH2) | 0.0501 | 205 | 0.0572 | 0.0978 | 2.76 |
| CC[C@H](C)[C@H](NC(=O)[C@H](CC(C)C)NC(=O)[C@H](Cc1ccc(O)cc1)NC(=O)[C@H](CCC(=O)O)NC(=O)[C@@H](NC(=O)[C@H](Cc1ccccc1)NC(=O)[C@H](C)NC(=O)C(C)(C)NC(=O)[C@H](CCC(N)=O)NC(=O)[C@H](C)NC(=O)[C@H](CCCCNC(=O)COCCOCCNC(=O)COCCOCCNC(=O)CC[C@H](NC(=O)CCCCCCCCCCCCCCCCCCC(=O)O)C(=O)O)NC(=O)[C@H](CCCCN)NC(=O)[C@H](CC(=O)O)NC(=O)[C@H](CC(C)C)NC(=O)[C@H](CC(C)C)NC(=O)[C@@H](NC(=O)[C@H](CO)NC(=O)[C@H](Cc1ccc(O)cc1)NC(=O)[C@H](CC(=O)O)NC(=O)[C@H](CO)NC(=O)[C@@H](NC(=O)[C@H](Cc1ccccc1)NC(=O)[C@@H](NC(=O)CNC(=O)[C@H](CCC(=O)O)NC(=O)C(C)(C)NC(=O)[C@@H](N)Cc1ccc(O)cc1)[C@@H](C)O)[C@@H](C)O)[C@@H](C)CC)[C@@H](C)CC)C(=O)N[C@@H](CCC(=O)O)C(=O)NCC(=O)NCC(N)=O [Example 51] (H-Y[Aib]EGTFTSDYSILLDKK([AEEA-AEEA-γGlu-C20 diacid])AQ[Aib]AFIEYLIEGG-NH2) | 0.096 | 195 | 0.153 | 0.062 | 5.62 |
